# Source: PMC7756445, “A Novel Prodrug of a nNOS Inhibitor with Improved Pharmacokinetic Potential” (Chemmedchem, 2020)
# Key:
# [1] = target: T1, B5 and B5R (Homo sapiens, UniProt O43169+P00387); assay: Bioconversion control experiment without mARC; format: in vitro ADME; conditions: B5 and B5R only, no mARC; NADH assay
# T1 sequence (O43169 16-150): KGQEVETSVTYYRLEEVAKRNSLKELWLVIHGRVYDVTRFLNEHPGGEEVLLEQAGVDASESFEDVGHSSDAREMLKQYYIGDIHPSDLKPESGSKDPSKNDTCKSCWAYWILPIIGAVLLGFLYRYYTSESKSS
# T1 sequence (P00387 24-301 limits assumed): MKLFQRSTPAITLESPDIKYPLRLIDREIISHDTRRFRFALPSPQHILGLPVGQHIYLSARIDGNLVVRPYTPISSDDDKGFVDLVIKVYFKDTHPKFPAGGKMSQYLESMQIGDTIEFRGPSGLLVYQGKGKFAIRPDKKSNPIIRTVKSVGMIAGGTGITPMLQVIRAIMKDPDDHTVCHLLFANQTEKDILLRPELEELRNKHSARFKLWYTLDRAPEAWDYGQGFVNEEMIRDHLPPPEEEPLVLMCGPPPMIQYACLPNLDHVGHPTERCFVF
# [2] = PAMPA-GI assay; parameters: Papp at 2 h: dose or concentration left out as unconfirmed; conditions: for Papp at 2 h: PAMPA
# Protocol: (§1) The relative passive transcellular diffusion of compounds, expressed as permeability coefficient (Pe), was determined with a permeability equation. ^[45] The permeabilities of 1, 2, and 1400 W were determined at pH 5.0, 6.5, and 7.4 to mimic the physiological conditions of the GI tract (Table 1). […] As the new prodrug was designed for the potential treatment of neurodegenerative diseases, an important parameter is its capability to cross the BBB.
# Each donor filtration plate well, carefully impregnated with 5 µL of this solution, was added of 150 μL of […] test compound buffer solutions (phosphate buffer for pH 7.4 and pH 6.5 and hydrochloric acid buffer for pH 1.4). Subsequently, the drug‐filled donor plate was placed onto the acceptor plate prefilled with the same buffer (300 μL) as the acceptor solution. Once replaced the plate lid, the resulting assembled donor‐acceptor plates were incubated at room temperature for 2 h. The concentration in the acceptor and donor solutions were determined by HPLC. The Pe was determined as previously reported. ^[47]
# [3] = PAMPA-BBB assay; parameters: Papp at 18 h: dose or concentration left out as unconfirmed; conditions: porcine polar brain lipid, 18 h
# Protocol: as §1
# PAMPA‐BBB assays were performed following the same procedure described above for PAMPA‐GI. Briefly, an artificial membrane consisting in a porcine polar brain lipid extract mixture (purchased from Avantis Polar Lipids, Alabaster, AL, USA) and an incubation time of 18 h were adopted as experimental conditions.
# [4] = Chemical stability in nonenzymatic simulated gastric and intestinal fluids; format: physicochemical; conditions: 2 h
# Protocol: The effects of gastrointestinal digestion are important parameters to be taken into consideration in the determination of bioavailability and bioactivity of new compounds. In particular, the luminal instability, due to the pH or enzymatic degradation, may compromise the transmucosal transport of the prodrug designed for permeability enhancement. Therefore, in this study the chemical stability of compound 2 was assessed to exclude any undesirable degradation at acid and physiological environments. Hydrochloric acid buffer (pH 2.0) as a nonenzymatic simulated gastric fluid (SGF), and phosphate buffer (pH 7.4) as nonenzymatic simulated intestinal fluid (SIF) were employed to evaluate the chemical stability. […] For chemical stability, a 0.01 M hydrochloric acid buffer (pH 1.3) and 0.01 M phosphate buffer (pH 7.4) were used. To assess enzymatic stability, the same hydrochloric buffer with and without pepsin (10 or 40 mg/mL) and phosphate buffer with and without pancreatin (10 or 40 mg/mL) were used. […] The mixture was vortexed and centrifuged at 2 °C and 10 000 rpm, Swing‐out Rotor, for 10 min, and the content of tested compound in the supernatant was analyzed by HPLC. Experiments were run in triplicate and the mean values of the rate constants were calculated.
structure (smiles),measurement,setting,value
"C/C(=N\O)NC(c1ccccc1)c1ccccc1 [Compound 2, (1E)‐N‐(diphenylmethyl)‐N′‐hydroxyethanimidamide]",conversion to the amidine 1 in control experiment,[1],no conversion
same,Papp at 2 h,[2]; pH 1.4,0.66 ×10⁻⁶ cm/s
same,Papp at 2 h,[2]; pH 6.5,1.57 ×10⁻⁶ cm/s
same,Papp at 2 h,[2]; pH 7.4,2.03 ×10⁻⁶ cm/s
same,PAMPA-GI Pe (bound stated in text),[2]; pH 6.5,> 1.5×10^−6
same,PAMPA-GI Pe (bound stated in text),[2]; pH 7.4,> 1.5×10^−6
same,Papp at 18 h,"[3]; pig, PAMPA, PAMPA-BBB permeability Pe",> 4 ×10⁻⁶ cm/s
same,PAMPA-BBB permeation class,[3],CNS+ (CNS+ (indicative of high BBB permeation): Pe >4.0)
same,chemical stability in nonenzymatic simulated gastric fluid (SGF),"[4]; hydrochloric acid buffer pH 2.0 (method: pH 1.3), 37 °C",stable
same,chemical stability in nonenzymatic simulated intestinal fluid (SIF),"[4]; phosphate buffer pH 7.4, 37 °C",stable
